Assay results: patent US11230717B2, “Plants having increased tolerance to herbicides” (BASF SE, priority 2013, dated 2022)

Legend:
Rhodococcus HPPD1 = experiment: HPPD activity assay, in vitro characterization; type: biochemical; conditions: normalized to Hordeum SEQ ID NO:2
Description: (§1) HPPD produces homogentisic acid and CO2 from 4-hydroxyphenylpyruvate (4-HPP) and O2. The activity assay for HPPD is based on the analysis of homogentisic acid by reversed phase HPLC.
(§2) The assay mixture can contain 150 mM potassium phosphate buffer pH 7.0, 50 mM L-ascorbic acid, 100 μM Catalase (Sigma-Aldrich), 1 μM FeSO4 and 0.2 units of purified HPPD enzyme in a total volume of 505 μl. 1 unit is defined as the amount of enzyme that is required to produce 1 nmol of HGA per minute at 20° C.
(§3) After a preincubation of 30 min the reaction is started by adding 4-HPP to a final concentration of 0.05 mM. The reaction is allowed to proceed for 45 min at room temperature. The reaction is stopped by the addition of 50 μl of 4.5 M phosphoric acid. The sample is filtered using a […] pore size PVDF filtration device.
(§4) 5 μl of the cleared sample is analyzed on an UPLC HSS T3 column (particle size 1.8 μm, dimensions 2,1×50 mm; Waters) by isocratic elution using 90% 20 mM NaH2PO4 pH 2.2, 10% methanol (v/v).
(§5) HGA is detected electrochemically at 750 mV (mode: DC; polarity: positive) and quantified by integrating peak areas (Empower software; Waters).
(§6) Inhibitors are dissolved in DMSO (dimethylsulfoxide) to a concentration of 0.5 mM. From this stock solution serial five-fold dilutions are prepared in DMSO, which are used in the assay. The respective inhibitor solution accounts for 1% of the assay volume. Thus, final inhibitor concentrations range from […], respectively. Activities are normalized by setting the uninhibited enzyme activity to 100%. IC50 values are calculated using non-linear regression.
(§7) Using methods which are described in the above examples or well known in the art, purified, recombinant wildtype HPPD enzymes are characterized with respect to their kinetic properties and sensitivity towards HPPD inhibiting herbicides. Apparent michaelis constants (Km) and maximal reaction velocities (Vmax) are calculated by non-linear regression with the software GraphPad Prism 5 (GraphPad Software, La Jolla, USA) using a substrate inhibition model. Apparent kcat values are calculated from Vmax assuming 100% purity of the enzyme preparation. Weighted means (by standard error) of Km and IC50 values are calculated from at least three independent experiments. The Cheng-Prusoff equation for competitive inhibition (Cheng, Y. C.; Prusoff, W. H. Biochem Pharmacol 1973, 22, 3099-3108) is used to calculate dissociation constants (Ki). • Field performance of the HPPD enzyme, which is used as a herbicide tolerance trait, may depend not only on its lack of sensitivity towards HPPD inhibiting herbicides but also on its activity. To assess the potential performance of a herbicide tolerance trait a tolerance index (TI) is calculated using the following formula: […]
(§8) The reference SEQ ID NO:2 was included as a comparative control in a representative number of experiments and the values given in Table 12 are the average values from a number of experiments. The TI values given for various HPPD enzymes from different organisms are normalized to the value of the reference SEQ ID NO:2.

[1] = test system: Zea mays HPPD mutant Seq ID 67; experiment: HPPD activity assay, in vitro characterization; type: biochemical; conditions: normalized to Hordeum SEQ ID NO:2
Description: as §1, §2, §3, §4, §5, §6, §7, §8

Lolium HPPD = experiment: HPPD activity assay, in vitro characterization; type: biochemical; conditions: normalized to Hordeum SEQ ID NO:2
Description: as §1, §2, §3, §4, §5, §6, §7, §8

Rhodococcus HPPD2 = experiment: HPPD activity assay, in vitro characterization; type: biochemical; conditions: normalized to Hordeum SEQ ID NO:2
Description: as §1, §2, §3, §4, §5, §6, §7, §8

Kordia HPPD = experiment: HPPD activity assay, in vitro characterization; type: biochemical; conditions: normalized to Hordeum SEQ ID NO:2
Description: as §1, §2, §3, §4, §5, §6, §7, §8

[2] = test system: Zea mays HPPD mutant Seq ID 69; experiment: HPPD activity assay, in vitro characterization; type: biochemical; conditions: normalized to Hordeum SEQ ID NO:2
Description: as §1, §2, §3, §4, §5, §6, §7, §8

transgenic Soy plants [3] = experiment: Greenhouse testing of transgenic Soy plants (T2), herbicide spray test; type: in vivo, Glycine max
Description: Transgenic plants expressing heterologous HPPD or HST enzymes are tested for tolerance against HPPD-inhibiting herbicides in greenhouse experiments.
For post emergence treatment, the test plants are first grown to a height of 3 to 15 cm, depending on the plant habit, and only then treated with the herbicides. For this purpose, the test plants are either sown directly and grown in the same containers, or they are first grown separately and transplanted into the test containers a few days prior to treatment. For testing of T0 plants, cuttings can be used. In the case of soybean plants, an optimal shoot for cutting is about 7.5 to 10 cm tall, with at least two nodes present. Each cutting is taken from the original transformant (mother plant) and dipped into rooting hormone powder (indole-3-butyric acid, IBA). The cutting is then placed in oasis wedges inside a bio-dome. Wild type cuttings are also taken simultaneously to serve as controls. The cuttings are kept in the bio-dome for 5-7 days and then transplanted to pots and then acclimated in the growth chamber for two more days. Subsequently, the cuttings are transferred to the greenhouse, acclimated for approximately 4 days, and then subjected to spray tests as indicated.
Depending on the species, the plants are kept at 10-25° C. or 20-35° C. The test period ex-tends over 3 weeks. During this time, the plants are tended and their response to the individual treatments is evaluated. Herbicide injury evaluations are taken at 2 and 3 weeks after treatment. Plant injury is rated on a scale of 0 to 9, 0 being no injury and 9 being complete death.
As depicted in Table 20, control plants were severely injured by all doses of herbicide applied, with 79% of leaf material being damaged at the highest application rate. […] Application of 31,25 g/ha active ingredient resulted only in 10-13% of leaf damage in two independent transgenic plant lines. Thus, in direct comparison with wild-type plants (injury value is 49%), a 4-fold increased tolerance could be observed after spraying with 31,25 g/ha. […]

transgenic Soy plants [4] = experiment: as above; type: in vivo, Glycine max; remark: listed apart in the source

## Cn1nnnc1NC(=O)c1c(F)cc(Cl)c(S(C)(=O)=O)c1Cl [Inhibitor 1, 2,4-dichloro-6-fluoro-3-methylsulfonyl-N-(1-methyltetrazol-5-yl)benzamide]
Rhodococcus HPPD1
  Normalized tolerance index (TI): 2.8
[1]
  Normalized tolerance index (TI): 5
Lolium HPPD
  Normalized tolerance index (TI): 4.2
Rhodococcus HPPD2
  Normalized tolerance index (TI): 2.8
Kordia HPPD
  Normalized tolerance index (TI): 1.2
[2]
  Normalized tolerance index (TI): 1.4

## CSc1c(Cl)cc(F)c(C(=O)Nc2ncnn2C)c1Cl [Inhibitor 3, 2,4-dichloro-6-fluoro-3-methylsulfanyl-N-(2-methyl-1,2,4-triazol-3-yl)benzamide]
Transgenic Soy plants [3]; Soy Arabidopsis HPPD (SEQ ID: 53), 31,25 g/ha
  increased tolerance vs wild-type plants: 4 fold
Transgenic Soy plants [3]; Soy Arabidopsis HPPD, two independent transgenic plant lines, 31,25 g/ha
  leaf damage: 10-13%
Transgenic Soy plants [3]; Soy expressing Glycine max HPPD
  tolerance compared to nontransgenic control plants: more tolerant
Rhodococcus HPPD1
  Normalized tolerance index (TI): 0.4
[1]
  Normalized tolerance index (TI): 3.8
Lolium HPPD
  Normalized tolerance index (TI): 1.7
Rhodococcus HPPD2
  Normalized tolerance index (TI): 12.5
Kordia HPPD
  Normalized tolerance index (TI): 3.1
[2]
  Normalized tolerance index (TI): 0.7
Transgenic Soy plants [4]; Soy AtHPPD Event 1, 31.25 g/ha, two weeks
  Injury evaluation, scale 0-100%: 10%
Transgenic Soy plants [4]; Soy AtHPPD Event 1, 62.5 g/ha, two weeks
  Injury evaluation, scale 0-100%: 16%
Transgenic Soy plants [4]; Soy AtHPPD Event 1, 125 g/ha, two weeks
  Injury evaluation, scale 0-100%: 44%
Transgenic Soy plants [4]; Soy AtHPPD Event 2, 31.25 g/ha, two weeks
  Injury evaluation, scale 0-100%: 13%
Transgenic Soy plants [4]; Soy AtHPPD Event 2, 62.5 g/ha, two weeks
  Injury evaluation, scale 0-100%: 23%
Transgenic Soy plants [4]; Soy AtHPPD Event 2, 125 g/ha, two weeks
  Injury evaluation, scale 0-100%: 40%
Transgenic Soy plants [4]; Soy AtL385V, I393L Event 2, 31.25 g/ha, two weeks
  Injury evaluation, scale 0-100%: 20%
Transgenic Soy plants [4]; Soy AtL385V, I393L Event 2, 62.5 g/ha, two weeks
  Injury evaluation, scale 0-100%: 35%
Transgenic Soy plants [4]; Soy AtL385V, I393L Event 2, 125 g/ha, two weeks
  Injury evaluation, scale 0-100%: 38%
Transgenic Soy plants [4]; Soy AtM335H Event 1, 31.25 g/ha, two weeks
  Injury evaluation, scale 0-100%: 10%
Transgenic Soy plants [4]; Soy AtM335H Event 1, 62.5 g/ha, two weeks
  Injury evaluation, scale 0-100%: 21%
Transgenic Soy plants [4]; Soy AtM335H Event 1, 125 g/ha, two weeks
  Injury evaluation, scale 0-100%: 33%
Transgenic Soy plants [4]; Soy AtM335H Event 2, 31.25 g/ha, two weeks
  Injury evaluation, scale 0-100%: 14%
Transgenic Soy plants [4]; Soy AtM335H Event 2, 62.5 g/ha, two weeks
  Injury evaluation, scale 0-100%: 29%
Transgenic Soy plants [4]; Soy AtM335H Event 2, 125 g/ha, two weeks
  Injury evaluation, scale 0-100%: 31%
Transgenic Soy plants [4]; Soy AtM335Y, 31.25 g/ha, two weeks
  Injury evaluation, scale 0-100%: 9%
Transgenic Soy plants [4]; Soy AtM335Y, 62.5 g/ha, two weeks
  Injury evaluation, scale 0-100%: 45%
Transgenic Soy plants [4]; Soy AtM335Y, 125 g/ha, two weeks
  Injury evaluation, scale 0-100%: 46%
Transgenic Soy plants [4]; Soy AtP336A, E363Q, L385V, I393L, 31.25 g/ha, two weeks
  Injury evaluation, scale 0-100%: 30%
Transgenic Soy plants [4]; Soy AtP336A, E363Q, L385V, I393L, 62.5 g/ha, two weeks
  Injury evaluation, scale 0-100%: 30%
Transgenic Soy plants [4]; Soy AtP336A, E363Q, L385V, I393L, 125 g/ha, two weeks
  Injury evaluation, scale 0-100%: 50%
Transgenic Soy plants [4]; Soy GmHPPD1, 31.25 g/ha, two weeks
  Injury evaluation, scale 0-100%: 15%
Transgenic Soy plants [4]; Soy GmHPPD1, 62.5 g/ha, two weeks
  Injury evaluation, scale 0-100%: 29%
Transgenic Soy plants [4]; Soy GmHPPD1, 125 g/ha, two weeks
  Injury evaluation, scale 0-100%: 46%
Transgenic Soy plants [4]; Soy, transgene none, 31.25 g/ha, two weeks after treatment
  Injury evaluation, scale 0-100%: 49%
Transgenic Soy plants [4]; Soy, transgene none, 62.5 g/ha, two weeks after treatment
  Injury evaluation, scale 0-100%: 68%
Transgenic Soy plants [4]; Soy, transgene none, 125 g/ha, two weeks after treatment
  Injury evaluation, scale 0-100%: 79%
